Reference: ChEMBL document CHEMBL3414499, “Characterization of two distinct structural classes of selective aldehyde dehydrogenase 1A1 inhibitors” (J Med Chem, 2015)
Activity calls are given as the source filed them. No cut-off for these calls is given here.

What was measured:
Retinal dehydrogenase 2 = target: T1, Retinal dehydrogenase 2 (Homo sapiens, UniProt O94788); test: Inhibition of recombinant human ALDH1A2 using propionaldehyde as substrate preincubated for 2 mins with NAD+ followed by substrate addition by UV-Vis spectrophotometric analysis
T1 sequence (O94788 whole entry): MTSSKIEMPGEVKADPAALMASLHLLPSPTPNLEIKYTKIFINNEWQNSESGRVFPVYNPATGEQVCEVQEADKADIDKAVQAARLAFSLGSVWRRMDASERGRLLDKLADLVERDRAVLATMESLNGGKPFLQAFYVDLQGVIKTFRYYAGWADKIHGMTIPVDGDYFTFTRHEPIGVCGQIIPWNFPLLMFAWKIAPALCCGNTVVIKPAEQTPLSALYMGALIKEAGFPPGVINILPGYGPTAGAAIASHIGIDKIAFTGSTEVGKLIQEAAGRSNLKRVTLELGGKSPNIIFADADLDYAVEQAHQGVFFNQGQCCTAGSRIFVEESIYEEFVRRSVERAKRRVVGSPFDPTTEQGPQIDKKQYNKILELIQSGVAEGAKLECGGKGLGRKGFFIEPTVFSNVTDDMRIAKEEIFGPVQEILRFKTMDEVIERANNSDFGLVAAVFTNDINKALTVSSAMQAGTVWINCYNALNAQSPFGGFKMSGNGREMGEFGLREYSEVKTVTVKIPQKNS

[1] = target: T2, Aldehyde dehydrogenase X, mitochondrial (Homo sapiens) (UniProt P30837); test: Inhibition of recombinant human ALDH1B1 using propionaldehyde as substrate at 100 uM preincubated for 2 mins with NAD+ followed by substrate addition by UV-Vis spectrophotometric analysis
T2 sequence (whole entry): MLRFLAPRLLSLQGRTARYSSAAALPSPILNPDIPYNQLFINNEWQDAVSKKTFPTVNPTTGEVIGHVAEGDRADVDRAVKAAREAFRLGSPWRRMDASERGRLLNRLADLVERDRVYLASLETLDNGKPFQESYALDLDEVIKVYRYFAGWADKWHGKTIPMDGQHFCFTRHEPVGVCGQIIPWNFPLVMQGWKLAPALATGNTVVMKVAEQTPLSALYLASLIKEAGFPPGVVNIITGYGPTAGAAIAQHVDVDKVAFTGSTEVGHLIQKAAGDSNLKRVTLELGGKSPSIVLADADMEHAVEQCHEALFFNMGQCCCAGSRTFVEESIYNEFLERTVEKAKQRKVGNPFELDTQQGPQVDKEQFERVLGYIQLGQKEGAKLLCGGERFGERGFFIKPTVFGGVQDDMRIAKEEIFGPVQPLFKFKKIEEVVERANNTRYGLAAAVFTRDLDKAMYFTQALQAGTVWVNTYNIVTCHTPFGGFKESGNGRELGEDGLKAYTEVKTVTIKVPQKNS

[2] = target: T3, Retinaldehyde dehydrogenase 3 (Homo sapiens) (UniProt P47895); test: Inhibition of recombinant human ALDH1A3 using propionaldehyde as substrate at 100 uM preincubated for 2 mins with NAD+ followed by substrate addition by UV-Vis spectrophotometric analysis
T3 sequence (whole entry): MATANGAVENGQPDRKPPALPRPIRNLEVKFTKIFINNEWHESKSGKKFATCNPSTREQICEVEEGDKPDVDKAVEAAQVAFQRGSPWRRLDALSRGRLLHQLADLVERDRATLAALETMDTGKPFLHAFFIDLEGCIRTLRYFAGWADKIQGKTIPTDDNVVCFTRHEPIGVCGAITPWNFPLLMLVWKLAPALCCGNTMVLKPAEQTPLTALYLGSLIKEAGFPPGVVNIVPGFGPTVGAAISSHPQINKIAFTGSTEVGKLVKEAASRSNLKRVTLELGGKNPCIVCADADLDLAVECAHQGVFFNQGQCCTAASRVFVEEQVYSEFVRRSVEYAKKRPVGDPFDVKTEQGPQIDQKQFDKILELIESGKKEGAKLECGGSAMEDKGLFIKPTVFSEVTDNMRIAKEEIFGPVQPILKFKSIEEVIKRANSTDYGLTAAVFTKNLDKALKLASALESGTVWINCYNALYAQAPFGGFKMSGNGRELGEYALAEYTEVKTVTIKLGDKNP

[3] = target: T4, Aldehyde dehydrogenase, mitochondrial (Homo sapiens, UniProt P05091); test: Inhibition of recombinant human ALDH2 using propionaldehyde as substrate preincubated for 2 mins with NAD+ followed by substrate addition by UV-Vis spectrophotometric analysis
T4 sequence (P05091 whole entry): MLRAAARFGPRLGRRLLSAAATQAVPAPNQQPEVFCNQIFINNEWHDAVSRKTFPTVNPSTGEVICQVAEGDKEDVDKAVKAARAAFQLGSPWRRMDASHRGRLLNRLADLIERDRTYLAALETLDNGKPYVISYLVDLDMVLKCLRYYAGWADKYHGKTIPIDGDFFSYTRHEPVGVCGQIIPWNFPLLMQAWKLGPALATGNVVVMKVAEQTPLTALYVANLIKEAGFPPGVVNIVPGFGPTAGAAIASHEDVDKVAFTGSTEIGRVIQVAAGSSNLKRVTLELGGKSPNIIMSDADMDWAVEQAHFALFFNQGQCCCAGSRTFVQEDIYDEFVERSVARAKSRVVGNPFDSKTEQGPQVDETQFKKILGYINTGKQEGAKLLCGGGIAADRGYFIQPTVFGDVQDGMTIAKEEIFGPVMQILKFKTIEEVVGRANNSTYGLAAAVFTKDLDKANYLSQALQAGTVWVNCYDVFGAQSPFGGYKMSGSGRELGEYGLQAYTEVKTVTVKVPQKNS

[4] = target: T5, Aldehyde dehydrogenase 1A1 (Homo sapiens) (UniProt P00352); test: Inhibition of recombinant human ALDH1A1 using propionaldehyde as substrate at 100 uM preincubated for 2 mins with NAD+ followed by substrate addition by UV-Vis spectrophotometric analysis relative to control
T5 sequence (whole entry): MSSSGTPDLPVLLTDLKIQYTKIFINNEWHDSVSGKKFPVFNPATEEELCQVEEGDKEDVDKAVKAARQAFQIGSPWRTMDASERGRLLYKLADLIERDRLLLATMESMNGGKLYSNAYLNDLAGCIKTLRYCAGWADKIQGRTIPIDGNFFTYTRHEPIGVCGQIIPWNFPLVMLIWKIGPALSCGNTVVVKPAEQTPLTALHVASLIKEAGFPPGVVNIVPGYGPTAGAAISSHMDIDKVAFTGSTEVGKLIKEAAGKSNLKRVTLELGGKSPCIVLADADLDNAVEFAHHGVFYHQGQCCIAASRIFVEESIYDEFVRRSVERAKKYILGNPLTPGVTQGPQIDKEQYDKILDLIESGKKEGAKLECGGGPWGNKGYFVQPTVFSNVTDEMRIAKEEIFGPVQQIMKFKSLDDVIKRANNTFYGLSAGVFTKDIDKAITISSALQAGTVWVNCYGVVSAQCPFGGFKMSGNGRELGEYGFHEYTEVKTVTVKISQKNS

[5] = target: T6, Retinal dehydrogenase 2 (Homo sapiens) (UniProt O94788); test: Activation of recombinant human ALDH1A2 using propionaldehyde as substrate at 100 uM preincubated for 2 mins with NAD+ followed by substrate addition by UV-Vis spectrophotometric analysis
T6 sequence (whole entry): T1 sequence (O94788 whole entry)

| SMILES | IC50 (Retinal dehydrogenase 2) [µM] | inhibition [1] | inhibition [2] | IC50 [3] [µM] | Imax [4] [%] | further results |
| --- | --- | --- | --- | --- | --- | --- |
| CCN1CCN(Cc2nc3c(c(=O)n(C)c(=O)n3C)n2CC(=O)c2ccccc2)CC1 |  | inactive | inactive |  |  |  |
| CC(C)CCn1c(CN(C)Cc2ccccc2)nc2c1c(=O)n(C)c(=O)n2C | > 100 |  |  | > 100 | < 70 |  |
| CC(C)CCn1c(CN2CCN(C(=O)c3ccco3)CC2)nc2c1c(=O)n(C)c(=O)n2C |  |  |  |  |  | Activity [5]: Active |
| Cn1c(=O)c2c(nc(SCC(N)=O)n2Cc2ccccc2F)n(C)c1=O |  | inactive |  |  | < 70 |  |
| CCCCn1c(CN2CCN(c3cccc(Cl)c3)CC2)nc2c1c(=O)n(C)c(=O)n2C | > 100 |  |  | > 100 |  |  |
| CCCCn1c(Oc2ccc(C(=O)OC)cc2)nc2c1c(=O)n(C)c(=O)n2C | > 100 | inactive |  |  | < 70 |  |

More lines, main results first:

| IC50 (Retinal dehydrogenase 2) [µM] | inhibition [1] | inhibition [2] | IC50 [3] [µM] | Imax [4] [%] | SMILES | further results |
| --- | --- | --- | --- | --- | --- | --- |
| > 100 |  |  |  |  | Cn1c(=O)c2c(nc(N3CCN(Cc4ccccc4)CC3)n2Cc2cccc(Cl)c2)n(C)c1=O |  |
|  |  | inactive | > 100 |  | CC(C)CCn1c(CN2CCOCC2)nc2c1c(=O)n(C)c(=O)n2C |  |
|  | inactive |  |  |  | Cn1c(=O)c2c(nc(N3CCOCC3)n2Cc2ccccc2F)n(C)c1=O | Activity [5]: Active |
|  |  | inactive | > 100 |  | Cn1c(=O)c2c(nc(CN3CCC(C(N)=O)CC3)n2CCCc2ccccc2)n(C)c1=O |  |
